In one experiment the target is T1, PDE4B1 (Homo sapiens, UniProt Q07343).
T1 construct: made in house; host or cells: SF21 insect cells (baculovirus; pCR-Bac vector)
Briefly: Inhibition of PDE4B1 activity (SPA, [3H]cAMP). It is filed as biochemical. Conditions: recombinant PDE4B1 expressed in SF21 cells; 0.5 pM [sic] cAMP; values given as bins; read-out: PDE4B1 inhibitory values measured as −logIC50 (converted). Put shortly:
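Recombinant human PDE4B1 (Sf21 cell 1000 g supernatant) in 20 mM Tris pH 7.4, 0.1 mg/ml BSA, 5 mM Mg2+, […] with [3H]cAMP tracer, enzyme giving 10-20% conversion. After 5 min preincubation at 37 °C, 15 min reaction, stopped by SPA beads with IBMX; IC50 by non-linear regression.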

The next experiment addresses T2, human PDE5 (Homo sapiens, UniProt O76074).
T2 construct: from tissue; host or cells: human platelets from fresh donor blood (10,000 g supernatant of sonicated platelets)
In words: Inhibition of PDE5 activity (SPA, [3H]cGMP, platelet lysate). It is filed as biochemical. Conditions: PDE5 from human platelet lysate; values given as bins; read-out: PDE5A inhibitory values measured as −logIC50 (converted). In outline: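 Human platelet lysate served as PDE5 source, with 1 μM motapizone and 10 nM PDE2 inhibitor present; […] plus [3H]cGMP tracer, pH 7.4, 5 mM Mg2+, 10-20% substrate turnover. After 5 min preincubation, 15 min at 37 °C, stopped with SPA beads and IBMX; IC50 by non-linear regression.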

The results in this text go back to patent US9018175B2 (Takeda GmbH, priority 2009, dated 2015).

Structures are written as SMILES.

T1 sequence (Q07343 whole entry): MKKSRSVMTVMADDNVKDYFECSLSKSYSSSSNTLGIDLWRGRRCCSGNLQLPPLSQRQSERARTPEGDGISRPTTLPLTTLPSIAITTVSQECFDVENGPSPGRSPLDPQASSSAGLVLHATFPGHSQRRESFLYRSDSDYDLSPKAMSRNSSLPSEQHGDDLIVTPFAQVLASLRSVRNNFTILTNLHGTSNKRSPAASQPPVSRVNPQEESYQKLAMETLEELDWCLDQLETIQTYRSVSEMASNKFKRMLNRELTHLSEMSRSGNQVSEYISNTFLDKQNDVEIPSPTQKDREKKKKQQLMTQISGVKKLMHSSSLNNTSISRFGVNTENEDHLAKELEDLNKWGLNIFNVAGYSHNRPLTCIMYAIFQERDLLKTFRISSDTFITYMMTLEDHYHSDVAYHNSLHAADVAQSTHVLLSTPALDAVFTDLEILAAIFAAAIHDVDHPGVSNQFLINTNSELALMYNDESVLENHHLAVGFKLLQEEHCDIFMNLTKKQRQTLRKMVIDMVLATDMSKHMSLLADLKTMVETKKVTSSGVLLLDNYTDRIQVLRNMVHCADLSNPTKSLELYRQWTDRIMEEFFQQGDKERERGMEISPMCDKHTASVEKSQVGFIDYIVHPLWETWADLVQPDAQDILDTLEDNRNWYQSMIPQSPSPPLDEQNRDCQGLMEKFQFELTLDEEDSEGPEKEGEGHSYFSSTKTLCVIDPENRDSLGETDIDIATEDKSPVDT

With `CCn1nnc(Cn2c(=O)n(C3CCN(C(=O)c4ccc(C5=N[C@@H]6CCSC[C@@H]6c6cc(OC)c(OC)cc65)cc4)CC3)c(=O)c3sc(-c4ccccc4)cc32)n1` [Example 59, 3-[1-({4-[(4aR,10bR)-8,9-dimethoxy-3,4,4a,10b-tetrahydro-1H-thiopyrano[4,3-c]isoquinolin-6-yl]phenyl}carbonyl)piperidin-4-yl]-1-[(2-ethyl-2H-tetrazol-5-yl)methyl]-6-phenylthieno[3,2-d]pyrimidine-2,4(1H,3H)-dione], the IC50 at PDE4B1 is > 0.01 µM; at human PDE5, < 0.01 µM.

With `CCOc1cc2c(cc1OC)C(c1ccc(C(=O)N3CCC(n4c(=O)c5sc(-c6ccccc6)cc5n(Cc5cnc(C)s5)c4=O)CC3)cc1)=N[C@@H]1CCSC[C@H]21` [Example 20, 3-[1-({4-[(4aR,10bR)-9-ethoxy-8-methoxy-3,4,4a,10b-tetrahydro-1H-thiopyrano[4,3-c]isoquinolin-6-yl]phenyl}carbonyl)piperidin-4-yl]-1-[(2-methyl-1,3-thiazol-5-yl)methyl]-6-phenylthieno[3,2-d]pyrimidine-2,4(1H,3H)-dione], the values for the IC50 at PDE4B1 and on human PDE5 were 0.001 to 0.01 µM and < 0.01 µM, respectively.

`CCOc1cc2c(cc1OC)C(c1ccc(C(=O)N3CCC(n4c(=O)c5sc(-c6cc(OC)ccc6OC)cc5n(Cc5nnn(CC)n5)c4=O)CC3)cc1)=N[C@@H]1CCSC[C@H]21` [Example 36, 6-(2,5-dimethoxyphenyl)-3-[1-({4-[(4aR,10bR)-9-ethoxy-8-methoxy-3,4,4a,10b-tetrahydro-1H-thiopyrano[4,3-c]isoquinolin-6-yl]phenyl}carbonyl)piperidin-4-yl]-1-[(2-ethyl-2H-tetrazol-5-yl)methyl]thieno[3,2-d]pyrimidine-2,4(1H,3H)-dione]: the IC50 at PDE4B1 is > 0.01 µM; at human PDE5, < 0.01 µM.

For the compound `CCOc1cc2c(cc1OC)C(c1ccc(C(=O)N3CCC(n4c(=O)c5sc(-c6ccccc6F)cc5n(Cc5nnn(CC)n5)c4=O)CC3)cc1)=N[C@@H]1CCSC[C@H]21` [Example 38, 3-[1-({4-[(4aR,10bR)-9-ethoxy-8-methoxy-3,4,4a,10b-tetrahydro-1H-thiopyrano[4,3-c]isoquinolin-6-yl]phenyl}carbonyl)piperidin-4-yl]-1-[(2-ethyl-2H-tetrazol-5-yl)methyl]-6-(2-fluorophenyl)thieno[3,2-d]pyrimidine-2,4(1H,3H)-dione], the IC50 is > 0.01 µM on PDE4B1 and < 0.01 µM at human PDE5.

In the case of `CCOc1cc2c(cc1OC)C(c1ccc(C(=O)N3CCC(n4c(=O)c5sc(-c6ccc(F)cc6OC)cc5n(Cc5nnn(CC)n5)c4=O)CC3)cc1)=N[C@@H]1CCSC[C@H]21` [Example 32, 3-[1-({4-[(4aR,10bR)-9-ethoxy-8-methoxy-3,4,4a,10b-tetrahydro-1H-thiopyrano[4,3-c]isoquinolin-6-yl]phenyl}carbonyl)piperidin-4-yl]-1-[(2-ethyl-2H-tetrazol-5-yl)methyl]-6-(4-fluoro-2-methoxyphenyl)thieno[3,2-d]pyrimidine-2,4(1H,3H)-dione], the IC50 was 0.001 to 0.01 µM on PDE4B1 and < 0.01 µM on human PDE5.

Consider `CCOc1cc2c(cc1OC)C(c1ccc(C(=O)N3CCC(n4c(=O)c5sc(-c6ccccc6)cc5n(Cc5ccn(CC)n5)c4=O)CC3)cc1)=N[C@@H]1CCSC[C@H]21` [Example 18, 3-[1-({4-[(4aR,10bR)-9-ethoxy-8-methoxy-3,4,4a,10b-tetrahydro-1H-thiopyrano[4,3-c]isoquinolin-6-yl]phenyl}carbonyl)piperidin-4-yl]-1-[(1-ethyl-1H-pyrazol-3-yl)methyl]-6-phenylthieno[3,2-d]pyrimidine-2,4(1H,3H)-dione], for which the IC50 was 0.001 to 0.01 µM at PDE4B1 and > 0.1 µM on human PDE5.

Turning to `CCOc1cc2c(cc1OC)C(c1ccc(C(=O)N3CCC(n4c(=O)c5sc(-c6ccccc6)cc5n(Cc5ncn(C)n5)c4=O)CC3)cc1)=N[C@@H]1CCSC[C@H]21` [Example 52, 3-[1-({4-[(4aR,10bR)-9-ethoxy-8-methoxy-3,4,4a,10b-tetrahydro-1H-thiopyrano[4,3-c]isoquinolin-6-yl]phenyl}carbonyl)piperidin-4-yl]-1-[(1-methyl-1H-1,2,4-triazol-3-yl)methyl]-6-phenylthieno[3,2-d]pyrimidine-2,4(1H,3H)-dione], the values for the IC50 on PDE4B1 and on human PDE5 were < 0.001 µM and > 0.1 µM, respectively.

Take `CCOc1cc2c(cc1OC)C(c1cccc(C(=O)N3CCC(n4c(=O)c5sc(-c6ccccc6F)cc5n(Cc5nnn(CC)n5)c4=O)CC3)c1)=N[C@@H]1CCSC[C@H]21` [Example 39]: the results for the IC50 at PDE4B1 and on human PDE5 were 0.001 to 0.01 µM and < 0.01 µM, respectively.

For `CCOc1cc2c(cc1OC)C(c1ccc(C(=O)N3CCC(n4c(=O)c5sc(-c6ccccc6)cc5n(Cc5nnn(COC)n5)c4=O)CC3)cc1)=N[C@@H]1CCSC[C@H]21` [Example 28, 3-[1-({4-[(4aR,10bR)-9-ethoxy-8-methoxy-3,4,4a,10b-tetrahydro-1H-thiopyrano[4,3-c]isoquinolin-6-yl]phenyl}carbonyl)piperidin-4-yl]-1-{[2-(methoxymethyl)-2H-tetrazol-5-yl]methyl}-6-phenylthieno[3,2-d]pyrimidine-2,4(1H,3H)-dione], the values for the IC50 at PDE4B1 and on human PDE5 were < 0.001 µM and < 0.01 µM, respectively.

Regarding `CCCOCc1noc(Cn2c(=O)n(C3CCN(C(=O)c4ccc(C5=N[C@@H]6CCSC[C@@H]6c6cc(OCC)c(OC)cc65)cc4)CC3)c(=O)c3sc(-c4ccccc4)cc32)n1` [Example 51, 3-[1-({4-[(4aR,10bR)-9-ethoxy-8-methoxy-3,4,4a,10b-tetrahydro-1H-thiopyrano[4,3-c]isoquinolin-6-yl]phenyl}carbonyl)piperidin-4-yl]-6-phenyl-1-{[3-(propoxymethyl)-1,2,4-oxadiazol-5-yl]methyl}thieno[3,2-d]pyrimidine-2,4(1H,3H)-dione], the figures for the IC50 on PDE4B1 and on human PDE5 were < 0.001 µM and > 0.1 µM, respectively.

Consider `CCOc1cc2c(cc1OC)C(c1ccc(C(=O)N3CCC(n4c(=O)c5sc(-c6cc(F)ccc6OC)cc5n(Cc5nnn(CC)n5)c4=O)CC3)cc1)=N[C@@H]1CCSC[C@H]21` [Example 34, 3-[1-({4-[(4aR,10bR)-9-ethoxy-8-methoxy-3,4,4a,10b-tetrahydro-1H-thiopyrano[4,3-c]isoquinolin-6-yl]phenyl}carbonyl)piperidin-4-yl]-1-[(2-ethyl-2H-tetrazol-5-yl)methyl]-6-(5-fluoro-2-methoxyphenyl)thieno[3,2-d]pyrimidine-2,4(1H,3H)-dione], for which the IC50 was > 0.01 µM at PDE4B1 and 0.01 to 0.1 µM on human PDE5.

Regarding `CCOc1cc2c(cc1OC)C(c1ccc(C(=O)N3CCC(n4c(=O)c5sc(-c6ccc(F)cc6OC)cc5n(Cc5nc(CC)no5)c4=O)CC3)cc1)=N[C@@H]1CCSC[C@H]21` [Example 43, 3-[1-({4-[(4aR,10bR)-9-ethoxy-8-methoxy-3,4,4a,10b-tetrahydro-1H-thiopyrano[4,3-c]isoquinolin-6-yl]phenyl}carbonyl)piperidin-4-yl]-1-[(3-ethyl-1,2,4-oxadiazol-5-yl)methyl]-6-(4-fluoro-2-methoxyphenyl)thieno[3,2-d]pyrimidine-2,4(1H,3H)-dione], the IC50 on PDE4B1 is 0.001 to 0.01 µM; on human PDE5, 0.01 to 0.1 µM.

Consider `CCOc1cc2c(cc1OC)C(c1ccc(C(=O)N3CCC(n4c(=O)c5sc(-c6cccc(F)c6F)cc5n(Cc5nnn(CC)n5)c4=O)CC3)cc1)=N[C@@H]1CCSC[C@H]21` [Example 42, 6-(2,3-difluorophenyl)-3-[1-({4-[(4aR,10bR)-9-ethoxy-8-methoxy-3,4,4a,10b-tetrahydro-1H-thiopyrano[4,3-c]isoquinolin-6-yl]phenyl}carbonyl)piperidin-4-yl]-1-[(2-ethyl-2H-tetrazol-5-yl)methyl]thieno[3,2-d]pyrimidine-2,4(1H,3H)-dione], for which the IC50 on PDE4B1 is > 0.01 µM; on human PDE5 it was 0.01 to 0.1 µM.

For the compound `CCOc1cc2c(cc1OC)C(c1ccc(C(=O)N3CCC(n4c(=O)c5sc(-c6ccccc6)cc5n(Cc5nc(C)cs5)c4=O)CC3)cc1)=N[C@@H]1CCSC[C@H]21` [Example 13, 3-[1-({4-[(4aR,10bR)-9-ethoxy-8-methoxy-3,4,4a,10b-tetrahydro-1H-thiopyrano[4,3-c]isoquinolin-6-yl]phenyl}carbonyl)piperidin-4-yl]-1-[(4-methyl-1,3-thiazol-2-yl)methyl]-6-phenylthieno[3,2-d]pyrimidine-2,4(1H,3H)-dione], the values for the IC50 at PDE4B1 and at human PDE5 were 0.001 to 0.01 µM and > 0.1 µM, respectively.

Take `CCOc1cc2c(cc1OC)C(c1ccc(C(=O)N3CCC(n4c(=O)c5sc(-c6ccc(F)cc6OC)cc5n(Cc5nc(COC)no5)c4=O)CC3)cc1)=N[C@@H]1CCSC[C@H]21` [Example 44, 3-[1-({4-[(4aR,10bR)-9-ethoxy-8-methoxy-3,4,4a,10b-tetrahydro-1H-thiopyrano[4,3-c]isoquinolin-6-yl]phenyl}carbonyl)piperidin-4-yl]-6-(4-fluoro-2-methoxyphenyl)-1-{[3-(methoxymethyl)-1,2,4-oxadiazol-5-yl]methyl}thieno[3,2-d]pyrimidine-2,4(1H,3H)-dione]: the IC50 was 0.001 to 0.01 µM on PDE4B1 and < 0.01 µM at human PDE5.

Consider `CCOc1cc2c(cc1OC)C(c1ccc(C(=O)N3CCC(n4c(=O)c5sc(-c6ccccc6)cc5n(Cc5nccn5C)c4=O)CC3)cc1)=N[C@@H]1CCSC[C@H]21` [Example 53, 3-[1-({4-[(4aR,10bR)-9-ethoxy-8-methoxy-3,4,4a,10b-tetrahydro-1H-thiopyrano[4,3-c]isoquinolin-6-yl]phenyl}carbonyl)piperidin-4-yl]-1-[(1-methyl-1H-imidazol-2-yl)methyl]-6-phenylthieno[3,2-d]pyrimidine-2,4(1H,3H)-dione], for which the IC50 on PDE4B1 is < 0.001 µM; on human PDE5, > 0.1 µM.
